Measurements published in ChEMBL document CHEMBL2150993, “Substituted thiazoles VII. Synthesis and antitumor activity of certain 2-(substituted amino)-4-phenyl-1,3-thiazole analogs” (2012).

How the values were obtained:
Format in all cases: functional
Conditions in all cases: at 10 µM
CCRF-CEM = experiment: Growth inhibition of human CCRF-CEM cells after 48 hrs by cell counting analysis
HL-60 = experiment: Growth inhibition of human HL60 cells after 48 hrs by cell counting analysis
K562 = experiment: Growth inhibition of human K562 cells after 48 hrs by cell counting analysis
RPMI-8226 = experiment: Growth inhibition of human RPMI8226 cells after 48 hrs by cell counting analysis
SR = experiment: Growth inhibition of human SR cells after 48 hrs by cell counting analysis
A549 = experiment: Growth inhibition of human A549 cells after 48 hrs by cell counting analysis
EKVX = experiment: Growth inhibition of human EKVX cells after 48 hrs by cell counting analysis
HOP-62 = experiment: Growth inhibition of human HOP62 cells after 48 hrs by cell counting analysis
HOP-92 = experiment: Growth inhibition of human HOP92 cells after 48 hrs by cell counting analysis
NCI-H226 = experiment: Growth inhibition of human NCI-H226 cells after 48 hrs by cell counting analysis
NCI-H23 = experiment: Growth inhibition of human NCI-H23 cells after 48 hrs by cell counting analysis
[1] = Growth inhibition of human NCI-322M cells after 48 hrs by cell counting analysis
NCI-H522 = experiment: Growth inhibition of human NCI-H522 cells after 48 hrs by cell counting analysis
HCC 2998 = experiment: Growth inhibition of human HCC2998 cells after 48 hrs by cell counting analysis
HCT-15 = experiment: Growth inhibition of human HCT15 cells after 48 hrs by cell counting analysis
HT-29 = experiment: Growth inhibition of human HT-29 cells after 48 hrs by cell counting analysis
KM12 = experiment: Growth inhibition of human KM12 cells after 48 hrs by cell counting analysis
SW-620 = experiment: Growth inhibition of human SW620 cells after 48 hrs by cell counting analysis
SF-268 = experiment: Growth inhibition of human SF268 cells after 48 hrs by cell counting analysis
SF-295 = experiment: Growth inhibition of human SF295 cells after 48 hrs by cell counting analysis
SF-539 = experiment: Growth inhibition of human SF539 cells after 48 hrs by cell counting analysis
SNB-19 = experiment: Growth inhibition of human SNB19 cells after 48 hrs by cell counting analysis
SNB-75 = experiment: Growth inhibition of human SNB75 cells after 48 hrs by cell counting analysis
U-251 = experiment: Growth inhibition of human U251 cells after 48 hrs by cell counting analysis
LOX IMVI = experiment: Growth inhibition of human LOXIMVI cells after 48 hrs by cell counting analysis
Malme-3M = experiment: Growth inhibition of human MALME-3M cells after 48 hrs by cell counting analysis
M14 = experiment: Growth inhibition of human M14 cells after 48 hrs by cell counting analysis
MDA-MB-435 = experiment: Growth inhibition of human MDA-MB-435 cells after 48 hrs by cell counting analysis
SK-MEL-2 = experiment: Growth inhibition of human SK-MEL-2 cells after 48 hrs by cell counting analysis
SK-MEL-28 = experiment: Growth inhibition of human SK-MEL-28 cells after 48 hrs by cell counting analysis
SK-MEL-5 = experiment: Growth inhibition of human SK-MEL-5 cells after 48 hrs by cell counting analysis
UACC-257 = experiment: Growth inhibition of human UACC257 cells after 48 hrs by cell counting analysis
UACC-62 = experiment: Growth inhibition of human UACC62 cells after 48 hrs by cell counting analysis
IGROV-1 = experiment: Growth inhibition of human IGROV1 cells after 48 hrs by cell counting analysis
OVCAR-3 = experiment: Growth inhibition of human OVCAR3 cells after 48 hrs by cell counting analysis
OVCAR-4 = experiment: Growth inhibition of human OVCAR4 cells after 48 hrs by cell counting analysis
OVCAR-5 = experiment: Growth inhibition of human OVCAR5 cells after 48 hrs by cell counting analysis
OVCAR-8 = experiment: Growth inhibition of human OVCAR8 cells after 48 hrs by cell counting analysis
[2] = Growth inhibition of human NCI-ADR-RES cells after 48 hrs by cell counting analysis
SK-OV-3 = experiment: Growth inhibition of human SKOV3 cells after 48 hrs by cell counting analysis
ACHN = experiment: Growth inhibition of human ACHN cells after 48 hrs by cell counting analysis
CAKI-1 = experiment: Growth inhibition of human Caki1 cells after 48 hrs by cell counting analysis
RXF 393 = experiment: Growth inhibition of human RXF393 cells after 48 hrs by cell counting analysis
SN12C = experiment: Growth inhibition of human SN12C cells after 48 hrs by cell counting analysis
TK-10 = experiment: Growth inhibition of human TK10 cells after 48 hrs by cell counting analysis
UO-31 = experiment: Growth inhibition of human UO31 cells after 48 hrs by cell counting analysis
PC-3 = experiment: Growth inhibition of human PC3 cells after 48 hrs by cell counting analysis
MCF7 = experiment: Growth inhibition of human MCF7 cells after 48 hrs by cell counting analysis
MDA-MB-231 = experiment: Growth inhibition of human MDA-MB-231 cells after 48 hrs by cell counting analysis
BT-549 = experiment: Growth inhibition of human BT549 cells after 48 hrs by cell counting analysis
T47D = experiment: Growth inhibition of human T47D cells after 48 hrs by cell counting analysis
MDA-MB-468 = experiment: Growth inhibition of human MDA-MB-468 cells after 48 hrs by cell counting analysis
MOLT-4 = experiment: Growth inhibition of human MOLT4 cells after 48 hrs by cell counting analysis
HCT-116 = experiment: Growth inhibition of human HCT116 cells after 48 hrs by cell counting analysis

## Cc1ccc(-c2csc(NC(=O)CCN3CCN(c4ccccc4)CC3)n2)cc1
CCRF-CEM
  growth inhibition (GI): <10%
HL-60
  growth inhibition (GI): <10%
K562
  growth inhibition (GI): <10%
RPMI-8226
  growth inhibition (GI): <10%
SR
  growth inhibition (GI): <10%
A549
  growth inhibition (GI): 23.8%
EKVX
  growth inhibition (GI): 16.6%
HOP-62
  growth inhibition (GI): <10%
HOP-92
  growth inhibition (GI): 10.2%
NCI-H226
  growth inhibition (GI): <10%
NCI-H23
  growth inhibition (GI): 14.5%
[1]
  growth inhibition (GI): 15.6%
NCI-H522
  growth inhibition (GI): <10%
HCC 2998
  growth inhibition (GI): <10%
HCT-15
  growth inhibition (GI): <10%
HT-29
  growth inhibition (GI): <10%
KM12
  growth inhibition (GI): <10%
SW-620
  growth inhibition (GI): <10%
SF-268
  growth inhibition (GI): <10%
SF-295
  growth inhibition (GI): <10%
SF-539
  growth inhibition (GI): <10%
SNB-19
  growth inhibition (GI): <10%
SNB-75
  growth inhibition (GI): <10%
U-251
  growth inhibition (GI): <10%
LOX IMVI
  growth inhibition (GI): <10%
Malme-3M
  growth inhibition (GI): 12.1%
M14
  growth inhibition (GI): <10%
MDA-MB-435
  growth inhibition (GI): <10%
SK-MEL-2
  growth inhibition (GI): <10%
SK-MEL-28
  growth inhibition (GI): <10%
SK-MEL-5
  growth inhibition (GI): <10%
UACC-257
  growth inhibition (GI): <10%
UACC-62
  growth inhibition (GI): 16.3%
IGROV-1
  growth inhibition (GI): 14.9%
OVCAR-3
  growth inhibition (GI): <10%
OVCAR-4
  growth inhibition (GI): 11.1%
OVCAR-5
  growth inhibition (GI): <10%
OVCAR-8
  growth inhibition (GI): <10%
[2]
  growth inhibition (GI): <10%
SK-OV-3
  growth inhibition (GI): <10%
ACHN
  growth inhibition (GI): <10%
CAKI-1
  growth inhibition (GI): 14.1%
RXF 393
  growth inhibition (GI): <10%
SN12C
  growth inhibition (GI): <10%
TK-10
  growth inhibition (GI): <10%
UO-31
  growth inhibition (GI): 41.2%
PC-3
  growth inhibition (GI): 16.1%
MCF7
  growth inhibition (GI): <10%
MDA-MB-231
  growth inhibition (GI): <10%
BT-549
  growth inhibition (GI): <10%
T47D
  growth inhibition (GI): <10%
MDA-MB-468
  growth inhibition (GI): <10%
MOLT-4
  growth inhibition (GI): 14.9%
HCT-116
  growth inhibition (GI): <10%

## Cc1ccc(-c2csc(NC(=O)CN3CCN(c4ccccc4)CC3)n2)cc1
CCRF-CEM
  growth inhibition (GI): 13.4%
HL-60
  growth inhibition (GI): <10%
K562
  growth inhibition (GI): <10%
RPMI-8226
  growth inhibition (GI): <10%
SR
  growth inhibition (GI): <10%
A549
  growth inhibition (GI): 31.4%
EKVX
  growth inhibition (GI): 32.5%
HOP-62
  growth inhibition (GI): <10%
HOP-92
  growth inhibition (GI): <10%
NCI-H226
  growth inhibition (GI): <10%
NCI-H23
  growth inhibition (GI): 18.9%
[1]
  growth inhibition (GI): 21.4%
NCI-H522
  growth inhibition (GI): <10%
HCC 2998
  growth inhibition (GI): 15.2%
HCT-15
  growth inhibition (GI): 10.6%
HT-29
  growth inhibition (GI): <10%
KM12
  growth inhibition (GI): <10%
SW-620
  growth inhibition (GI): <10%
SF-268
  growth inhibition (GI): 13.9%
SF-295
  growth inhibition (GI): 27.3%
SF-539
  growth inhibition (GI): <10%
SNB-19
  growth inhibition (GI): <10%
SNB-75
  growth inhibition (GI): 12.1%
U-251
  growth inhibition (GI): <10%
LOX IMVI
  growth inhibition (GI): 17.2%
Malme-3M
  growth inhibition (GI): <10%
M14
  growth inhibition (GI): <10%
MDA-MB-435
  growth inhibition (GI): 17.6%
SK-MEL-2
  growth inhibition (GI): <10%
SK-MEL-28
  growth inhibition (GI): <10%
SK-MEL-5
  growth inhibition (GI): 27.6%
UACC-257
  growth inhibition (GI): <10%
UACC-62
  growth inhibition (GI): 23.6%
IGROV-1
  growth inhibition (GI): 33.8%
OVCAR-3
  growth inhibition (GI): <10%
OVCAR-4
  growth inhibition (GI): 28.1%
OVCAR-5
  growth inhibition (GI): <10%
OVCAR-8
  growth inhibition (GI): <10%
[2]
  growth inhibition (GI): 21%
SK-OV-3
  growth inhibition (GI): <10%
ACHN
  growth inhibition (GI): <10%
CAKI-1
  growth inhibition (GI): 24.6%
RXF 393
  growth inhibition (GI): <10%
SN12C
  growth inhibition (GI): 17%
TK-10
  growth inhibition (GI): <10%
UO-31
  growth inhibition (GI): 48.2%
PC-3
  growth inhibition (GI): 31.1%
MCF7
  growth inhibition (GI): 20.9%
MDA-MB-231
  growth inhibition (GI): <10%
BT-549
  growth inhibition (GI): <10%
T47D
  growth inhibition (GI): 20.8%
MDA-MB-468
  growth inhibition (GI): 23.1%
MOLT-4
  growth inhibition (GI): 23.7%
HCT-116
  growth inhibition (GI): <10%
